From patent publication US20220372040A1, “METTL3 MODULATORS” (Accent Therapeutics, Inc., priority 2020, published 2022)

Legend:
METTL3/METTL14 = METTL3/METTL14 (Homo sapiens, UniProt Q86U44); assay: METTL3-14 standard enzyme assay (3H-SAM flashplate scintillation); type: biochemical; settings: METTL3/METTL14 2.5 nM, RNA 100 nM, 3H-SAM 100 nM, 30 min
In short: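 Radiometric methylation readout: biotinylated RNA substrate UCUGGACUAAA and 3H-SAM, each 100 nM final, reacted 30 min at ambient temperature with 2.5 nM enzyme complex after 5 min compound preincubation (HEPES pH 7.5 buffer, KCl, MgCl2, DTT). Excess unlabelled SAM (15 μM) stopped reactions before streptavidin flashplate capture.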

PRMT5-MEP50 = PRMT5-MEP50 (Homo sapiens, UniProt O14744); assay: PRMT5 assay (3H-SAM flashplate scintillation); type: biochemical; settings: PRMT5-MEP50 2.5 nM, histone H4 peptide 100 nM, 3H-SAM 250 nM, 60 min
PRMT5-MEP50, sequence (O14744 whole entry): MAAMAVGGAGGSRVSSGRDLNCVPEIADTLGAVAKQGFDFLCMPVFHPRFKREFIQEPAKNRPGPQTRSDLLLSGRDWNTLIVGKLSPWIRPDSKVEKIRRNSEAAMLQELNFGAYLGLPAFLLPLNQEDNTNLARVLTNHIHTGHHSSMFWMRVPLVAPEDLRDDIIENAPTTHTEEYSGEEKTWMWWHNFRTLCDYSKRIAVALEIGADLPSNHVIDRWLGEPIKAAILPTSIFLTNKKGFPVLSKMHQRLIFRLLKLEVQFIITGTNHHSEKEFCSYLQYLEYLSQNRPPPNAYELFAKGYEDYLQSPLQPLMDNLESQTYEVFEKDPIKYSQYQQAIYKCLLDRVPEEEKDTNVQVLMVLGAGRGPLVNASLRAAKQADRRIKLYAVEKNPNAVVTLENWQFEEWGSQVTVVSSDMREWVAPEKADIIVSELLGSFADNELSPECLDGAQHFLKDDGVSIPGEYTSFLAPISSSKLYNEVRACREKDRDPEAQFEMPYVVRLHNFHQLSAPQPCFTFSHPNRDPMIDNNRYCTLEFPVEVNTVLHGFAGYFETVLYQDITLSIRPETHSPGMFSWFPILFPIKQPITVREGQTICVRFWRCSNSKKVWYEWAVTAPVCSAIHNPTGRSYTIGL
PRMT5-MEP50, sequence (Q9BQA1 whole entry partner): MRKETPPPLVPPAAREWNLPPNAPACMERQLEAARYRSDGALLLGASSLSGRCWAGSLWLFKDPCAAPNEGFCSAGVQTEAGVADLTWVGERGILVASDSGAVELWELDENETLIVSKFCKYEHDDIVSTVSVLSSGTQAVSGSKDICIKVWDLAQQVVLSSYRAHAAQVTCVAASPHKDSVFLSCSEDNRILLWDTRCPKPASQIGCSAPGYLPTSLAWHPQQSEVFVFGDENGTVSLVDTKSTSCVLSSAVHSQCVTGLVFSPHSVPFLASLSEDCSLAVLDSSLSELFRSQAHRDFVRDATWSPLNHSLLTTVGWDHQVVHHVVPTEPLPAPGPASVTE
In short: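 Radiometric methyltransferase read-out: after 60 min reaction, excess unlabelled SAM (15 μM) stops turnover and biotinylated H4 peptide (100 nM) carrying 3H-methyl from 250 nM 3H-SAM is captured on streptavidin flashplates (2 h, 25° C) for scintillation counting. Enzyme, 2.5 nM PRMT5-MEP50, was preincubated 5 min with compound in pH 8.0 Tris buffer with DTT and Tween.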

MOLM-13 cells = assay: MOLM-13 96 Hour cell proliferation assay (Cell Titer-Glo); type: cell-based; settings: Homo sapiens
In short: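 MOLM-13 cells were seeded at 600 cells/well in RPMI 1640 with 10% FBS, then incubated overnight. Compounds were added at 0.25% DMSO final for 96 h at 37° C, with CellTiter-Glo luminescence read-out. Values normalized to staurosporine (100% death) and DMSO (0%); IC50 from 4-parameter logistic fit.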

METTL3/METTL14, sequence (Q86U44 whole entry, species assumed): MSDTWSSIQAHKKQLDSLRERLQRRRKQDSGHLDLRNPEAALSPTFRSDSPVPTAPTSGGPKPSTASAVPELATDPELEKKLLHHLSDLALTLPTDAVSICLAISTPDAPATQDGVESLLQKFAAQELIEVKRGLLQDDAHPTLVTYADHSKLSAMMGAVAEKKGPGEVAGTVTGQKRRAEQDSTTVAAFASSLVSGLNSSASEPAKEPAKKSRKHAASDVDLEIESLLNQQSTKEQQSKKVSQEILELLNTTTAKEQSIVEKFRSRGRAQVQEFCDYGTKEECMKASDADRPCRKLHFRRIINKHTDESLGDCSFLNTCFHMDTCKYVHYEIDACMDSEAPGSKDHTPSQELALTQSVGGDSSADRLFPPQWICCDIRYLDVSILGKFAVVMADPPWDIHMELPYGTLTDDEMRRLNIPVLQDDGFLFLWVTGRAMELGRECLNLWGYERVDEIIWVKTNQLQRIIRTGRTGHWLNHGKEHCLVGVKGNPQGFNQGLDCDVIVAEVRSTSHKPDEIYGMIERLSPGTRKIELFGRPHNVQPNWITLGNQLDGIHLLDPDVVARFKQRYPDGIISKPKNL
METTL3/METTL14, sequence (Q9HCE5 whole entry partner, species assumed): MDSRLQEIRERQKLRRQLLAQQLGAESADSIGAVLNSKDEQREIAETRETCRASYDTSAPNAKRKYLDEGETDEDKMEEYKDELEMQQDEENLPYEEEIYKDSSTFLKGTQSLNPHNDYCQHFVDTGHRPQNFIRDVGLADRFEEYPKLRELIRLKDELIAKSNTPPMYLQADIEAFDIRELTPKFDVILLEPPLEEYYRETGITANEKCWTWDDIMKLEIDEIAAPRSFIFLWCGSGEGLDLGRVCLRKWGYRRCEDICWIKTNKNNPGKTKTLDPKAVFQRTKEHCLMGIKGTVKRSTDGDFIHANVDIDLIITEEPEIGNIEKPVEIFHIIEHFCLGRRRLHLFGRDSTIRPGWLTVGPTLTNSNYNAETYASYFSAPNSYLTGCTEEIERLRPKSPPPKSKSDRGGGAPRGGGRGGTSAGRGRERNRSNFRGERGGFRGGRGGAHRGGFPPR

Row | Compound | IC50 (METTL3/METTL14) [nM] | IC50 (PRMT5-MEP50) [nM] | IC50 (MOLM-13 cells) [nM]
1 | CNc1ccc2ccc(OCc3cncc(-n4cc(Cl)c5c(N)ncnc54)c3)cc2n1 [Compound I-74, 7-((5-(4-amino-5-chloro-7H-pyrrolo[2,3-d]pyrimidin-7-yl)pyridin-3-yl)methoxy)-N-methylquinolin-2-amine] | < 10 | > 1000 | 1000 to 10000
2 | Nc1ncnc2c1c(C1CCCO1)cn2-c1cncc(CCc2ccc3ccc(N4CCC4)nc3c2)c1 (stereo not shown) [Compound I-126] | < 10 | > 1000 | 1000 to 10000
3 | C[C@@H]1CCN1c1ccc2ccc(OCc3cncc(-n4cc(C5CCCC5)c5c(N)ncnc54)c3)cc2n1 [Compound I-124] | 10 to 100 | > 1000 | 1000 to 10000
4 | CNc1ccc2ccc(OCc3cncc(-n4cc(-c5ncco5)c5c(N)ncnc54)c3)cc2n1 [Compound I-235] | < 10 | > 1000 | ≥ 10000
5 | CNc1ccc2ccc(OCc3cncc(-n4cc(C(C)C5CC5)c5c(N)ncnc54)c3)cc2n1 (stereo not shown) [Compound I-120] | < 10 | > 1000 | 1000 to 10000
6 | CNc1ccc2ccc(OCc3cncc(-n4cc(-c5ccc(C)o5)c5c(N)ncnc54)c3)cc2n1 [Compound I-234] | < 10 | > 1000 | 1000 to 10000
7 | CNc1ccc2ccc(OCc3cc(Br)cc(-n4cc(Cl)c5c(N)ncnc54)c3)cc2n1 [Compound I-75] | 100 to 1000 | > 1000 | 1000 to 10000
8 | CNc1ccc2cc(CCc3cccc(-n4cc(Cl)c5c(N)ncnc54)c3)ccc2n1 [Compound I-70] | 100 to 1000 | > 1000 | 1000 to 10000
9 | CCc1cc(NCCCN(C)C)c2ccc(CCc3cncc(-n4ccc5c(N)ncnc54)c3)cc2n1 [Compound I-127] | < 10 | > 1000 | ≥ 10000
10 | Cn1ccc(-c2cn(-c3cncc(CCc4ccc5cc(Br)c(N)nc5c4)c3)c3ncnc(N)c23)n1 [Compound I-123] | > 1000 | > 1000 | 1000 to 10000
11 | CCc1cc(N2CCC(F)(F)CC2)c2ccc(OCc3cncc(-n4ccc5c(N)ncnc54)c3)cc2n1 [Compound I-118] | < 10 | > 1000 | 1000 to 10000
12 | CCc1cc(NCCOC)c2ccc(CCc3cncc(-n4cc(-c5ccn(C)n5)c5c(N)ncnc54)c3)cc2n1 [Compound I-115] | < 10 | > 1000 | < 1000
13 | CNc1ccc2ccc(OCc3cccc(-n4cc(Cl)c5c(N)ncnc54)c3)cc2n1 [Compound I-87] | 10 to 100 | > 1000 | 1000 to 10000
14 | CNc1ccc2ccc(OCc3cncc(-n4cc([C@@H]5CCCO5)c5c(N)ncnc54)c3)cc2n1 [Compound I-113] | < 10 | > 1000 | 1000 to 10000
15 | CNc1ccc2ccc(OCc3cc(CO)cc(-n4cc(Cl)c5c(N)ncnc54)c3)cc2n1 [Compound I-34] | < 10 | > 1000 | 
16 | CNc1ccc2ccc(OCc3cncc(-n4c(C)cc5c(N)ncnc54)c3)cc2n1 [Compound I-36] | 10 to 100 | > 1000 | 
17 | CNc1ccc2ccc(OCc3cncc(-n4cc(CC5CC5)c5c(N)ncnc54)c3)cc2n1 [Compound I-29] | < 10 | > 1000 | 
18 | CNc1ccc2ccc(OCc3cncc(-n4cc([C@H]5CCCO5)c5c(N)ncnc54)c3)cc2n1 [Compound I-112] | < 10 | > 1000 | < 1000
19 | Nc1nc2cc(OCc3cncc(-n4ccc5c(N)ncnc54)c3)ccc2cc1Br [Compound I-111] | > 1000 | > 1000 | ≥ 10000
20 | CCNc1ccc2ccc(OCc3cncc(-n4cc(-c5ccn(C)n5)c5c(N)ncnc54)c3)cc2n1 [Compound I-128] | < 10 | > 1000 | 1000 to 10000
21 | Cn1ccc(-c2cn(-c3cncc(CCc4ccc5ccc(N)nc5c4)c3)c3ncnc(N)c23)n1 [Compound I-114] | < 10 | > 1000 | 1000 to 10000
22 | CNc1ccc2ccc(CCc3cncc(-n4cc(F)c5c(N)ncnc54)c3)cc2n1 [Compound I-116] | < 10 | > 1000 | 1000 to 10000
23 | CNc1ccc2ccc(OCc3cncc(-n4cc(-c5ccnn5C)c5c(N)ncnc54)c3)cc2n1 [Compound I-35] | < 10 | > 1000 | 
24 | CNc1ccc2ccc(CCc3cncc(-n4ccc5c(N)ncnc54)c3)cc2n1 [Compound I-30] | 10 to 100 | > 1000 | 
25 | CCc1cc(NC)c2ccc(CCc3cncc(-n4cc(-c5ccn(C)n5)c5c(N)ncnc54)c3)cc2n1 [Compound I-122] | < 10 | > 1000 | < 1000
26 | CCc1cc(N2CCNCC2)c2ccc(OCc3cncc(-n4cc(-c5ccn(C)n5)c5c(N)ncnc54)c3)cc2n1 [Compound I-121] | < 10 | > 1000 | < 1000
27 | CCc1cc(N(C)CCOC)c2ccc(CCc3cncc(-n4cc(-c5ccn(C)n5)c5c(N)ncnc54)c3)cc2n1 [Compound I-117] | < 10 | > 1000 | < 1000
28 | CNc1ccc2ccc(OCc3cncc(-n4cc(C5CCCC5)c5c(N)ncnc54)c3)cc2n1 [Compound I-58] | < 10 | > 1000 | < 1000
29 | CCNc1ccc2ccc(OCc3cccc(-n4cc(Cl)c5c(N)ncnc54)c3)cc2n1 [Compound I-61] | 10 to 100 | > 1000 | 1000 to 10000
